# From PMC6220272, “Scaffold-Hopping from Synthetic Drugs by Holistic Molecular Representation” (Scientific Reports, 2018)
# Key:
# PPARγ = molecular target: T1, PPARγ (Homo sapiens, UniProt P37231); assay: Gal4 hybrid reporter gene assay PPARγ (selectivity profiling); format: cell-based
# T1 construct: expressed in transfected cells; host or cells: HEK293T
# T1 sequence (P37231 238-503 limits assumed): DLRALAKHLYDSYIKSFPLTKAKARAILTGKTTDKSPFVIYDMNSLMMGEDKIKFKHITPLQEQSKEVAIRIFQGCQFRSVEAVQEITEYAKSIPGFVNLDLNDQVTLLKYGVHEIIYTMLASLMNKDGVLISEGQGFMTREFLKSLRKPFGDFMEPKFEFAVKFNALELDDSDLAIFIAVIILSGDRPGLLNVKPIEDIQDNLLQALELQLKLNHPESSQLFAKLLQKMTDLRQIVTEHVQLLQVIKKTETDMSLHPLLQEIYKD
# Description: (§1) Moreover, 7 was characterized for its ability to modulate RXR target gene expression under more physiological conditions. Hepatoma cells (HepG2) were incubated with 7 (30 µM) or reference RXR agonist bexarotene (9, 1 µM) for eight hours and mRNA expression of RXR regulated genes ATP-binding cassette transporter A1 (ABCA1), angiopoietin like protein 4 (ANGPTL4) and apolipoprotein E (ApoE) was analysed by quantitative real-time PCR.
# (§2) The Gal4 hybrid reporter gene assays were conducted as reported previously[39]–[41]. pFA-CMV-based constructs comprising the ligand binding domain of the human nuclear receptor in question were used as expression plasmids for the chimera receptors. pFR-Luc (Stratagene) served as reporter plasmid and pRL-SV40 (Promega) for normalization of transfection efficiency and cell growth. The assays were conducted in 96-well format in HEK293T cells that were cultured as described previously[39]–[41]. Transient transfection was carried out using Lipofectamine LTX reagent (Invitrogen) according to the manufacturer’s protocol. After transfection and incubation with test compounds (12–14 h), cells were assayed for luciferase activity using Dual-Glo™ Luciferase Assay System (Promega) according to the manufacturer’s protocol. Luminescence was measured with an Infinite M200 luminometer (Tecan Deutschland GmbH). […]
# RARβ = molecular target: T2, RARβ (Homo sapiens, UniProt P10826); assay: Gal4 hybrid reporter gene assay RARβ (selectivity profiling); format: cell-based
# T2 construct: expressed in transfected cells; host or cells: HEK293T
# T2 sequence (P10826 183-417 limits assumed): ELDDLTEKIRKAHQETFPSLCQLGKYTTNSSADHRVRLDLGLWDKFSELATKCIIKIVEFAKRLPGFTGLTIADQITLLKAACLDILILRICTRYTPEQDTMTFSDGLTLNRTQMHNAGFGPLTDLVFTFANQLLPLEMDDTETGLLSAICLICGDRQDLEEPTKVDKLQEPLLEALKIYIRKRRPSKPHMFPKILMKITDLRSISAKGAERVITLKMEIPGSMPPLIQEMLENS
# Description: as §1, §2
smiles,measurement,setting,value
CC(C)(C)c1cc(/C=N/NC(=O)c2ccc(N)cc2)cc(C(C)(C)C)c1 [Compound 7],activity on PPARγ,PPARγ,no activity
same,activity on RARβ,RARβ,no activity
